Measured values from PubChem BioAssay AID330 (DTP/NCI, 2004).
“And” between values parts separate entries of the source, which are not always exact repeats. Equal values may be shown once. Inconclusive results and toxic doses are left out.

System: P388 leukemia ip, CD2F1 mice, survival T/C
Assay: NCI In Vivo Anticancer Drug Screen. Data for tumor model P388 Leukemia (intraperitoneal) in CD2F1 (CDF1) mice
Details: endpoint: median survival time, higher = longer survival
Outline: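 Mice carrying the transplanted tumor received test compound or vehicle. Survival was recorded in each group, and the value is the treated-group measurement divided by that of the vehicle-treated control group.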

[1] = dose: 60.0 mg/kg/injection, schedule: Q01DX005 (ip), vehicle: saline with Tween-80
[2] = dose: 120.0 mg/kg/injection, schedule: Q01DX005 (ip), vehicle: saline with Tween-80
[3] = dose: 240.0 mg/kg/injection, schedule: Q01DX005 (ip), vehicle: saline with Tween-80
[4] = dose: 50.0 mg/kg/injection, schedule: Q01DX009 (ip), vehicle: Klucel (hydroxypropylcellulose) (HPC)
[5] = dose: 100.0 mg/kg/injection, schedule: Q01DX009 (ip), vehicle: Klucel (hydroxypropylcellulose) (HPC)
[6] = dose: 100.0 mg/kg/injection, schedule: Q01DX001 (ip), vehicle: saline with Tween-80
[7] = dose: 50.0 mg/kg/injection, schedule: Q01DX009 (ip), vehicle: saline
[8] = dose: 200.0 mg/kg/injection, schedule: Q01DX009 (ip), vehicle: saline

SMILES: CC(C)C1N=C(c2ccccc2)OC1=O (centres undefined)
- T/C (dose: 60.0 mg/kg/injection, schedule: Q01DX005 (ip), vehicle: Klucel (hydroxypropylcellulose) (HPC)): 92 % of control
- T/C (dose: 120.0 mg/kg/injection, schedule: Q01DX005 (ip), vehicle: Klucel (hydroxypropylcellulose) (HPC)): 92 % of control
- T/C (dose: 240.0 mg/kg/injection, schedule: Q01DX005 (ip), vehicle: Klucel (hydroxypropylcellulose) (HPC)): 100 % of control

SMILES: N#CC(C(=O)C(=O)Nc1cccc(C(F)(F)F)c1)c1ccc(Cl)cc1Cl (centres undefined)
- T/C [1]: 94 % of control
- T/C [2]: 91 % of control
- T/C [3]: 92 % of control

SMILES: OC(CNC1CC2CCC1C2)COc1cccc2ccccc12 (centres undefined)
- T/C (dose: 25.0 mg/kg/injection, schedule: Q01DX009 (ip), vehicle: Klucel (hydroxypropylcellulose) (HPC)): 107 % of control
- T/C [4]: 107 % of control
- T/C [5]: 110 % of control

SMILES: CC(C)(C)c1cc2c3c(c1)C(C)(C)OS314(OC2=O)OC(=O)c2cc(C(C)(C)C)cc(c21)C(C)(C)O4
- T/C (dose: 25.0 mg/kg/injection, schedule: Q01DX001 (ip), vehicle: saline with Tween-80): 111 % of control
- T/C (dose: 50.0 mg/kg/injection, schedule: Q01DX001 (ip), vehicle: saline with Tween-80): 92 % of control
- T/C [6]: 100 % of control

SMILES: O=C1C(=O)c2cccnc2-c2ncccc21
- T/C (dose: 1.56 mg/kg/injection, schedule: Q01DX005 (ip), vehicle: Klucel (hydroxypropylcellulose) (HPC)): 115 % of control
- T/C (dose: 3.12 mg/kg/injection, schedule: Q01DX005 (ip), vehicle: Klucel (hydroxypropylcellulose) (HPC)): 106 % of control
- T/C (dose: 6.25 mg/kg/injection, schedule: Q01DX005 (ip), vehicle: Klucel (hydroxypropylcellulose) (HPC)): 115 % of control

SMILES: O=C(CCN1CCCCC1)Nc1ccc(F)c(Cl)c1
- T/C (dose: 50.0 mg/kg/injection, schedule: Q01DX005 (ip), vehicle: saline with Tween-80): 93 % of control
- T/C (dose: 100.0 mg/kg/injection, schedule: Q01DX005 (ip), vehicle: saline with Tween-80): 102 % of control
- T/C (dose: 200.0 mg/kg/injection, schedule: Q01DX005 (ip), vehicle: saline with Tween-80): 93 % of control

SMILES: Cc1ccc(C2OC(c3ccc(C)cc3)C(C)C(=O)C2C)cc1 (centres undefined)
- T/C [7]: 90 % of control
- T/C (dose: 100.0 mg/kg/injection, schedule: Q01DX009 (ip), vehicle: saline): 94 % of control
- T/C [8]: 99 % of control

SMILES: COc1cc(C(c2c(O)c3ccccc3oc2=O)c2c(O)c3ccccc3oc2=O)cc(OC)c1O
- T/C [1]: 99 % of control
- T/C [2]: 111 % of control

SMILES: CCN1CC[N+](CC)=C1C(=S)[S-]
- T/C [6]: 100 % of control
- T/C (dose: 200.0 mg/kg/injection, schedule: Q01DX001 (ip), vehicle: saline with Tween-80): 104 % of control
- T/C (dose: 400.0 mg/kg/injection, schedule: Q01DX001 (ip), vehicle: saline with Tween-80): 100 % of control

SMILES: COc1cc(=O)cc2n(-c3cc(OC)c(O)c(OC)c3)c3ccccc3nc1-2
- T/C (dose: 12.5 mg/kg/injection, schedule: Q01DX009 (ip), vehicle: saline): 100 % of control
- T/C (dose: 25.0 mg/kg/injection, schedule: Q01DX009 (ip), vehicle: saline): 104 % of control
- T/C [7]: 102 % of control and 88 % of control
- T/C [8]: 98 % of control

SMILES: COc1ccc(N=C2C(=Nc3ccc(OC)cc3)N(S(=O)(=O)c3ccc(C)cc3)C(=S)N2c2ccccc2)cc1
- T/C (dose: 50.0 mg/kg/injection, schedule: Q01DX005 (ip), vehicle: Klucel + Tween-80): 100 % of control
- T/C (dose: 100.0 mg/kg/injection, schedule: Q01DX005 (ip), vehicle: Klucel + Tween-80): 98 % of control

SMILES: C/C=C(\C)C(=O)OC1C2C(C)=CC(=O)C(O)C2(C)C2C3(O)OCC24C1OC(=O)C(OC(C)=O)C4C(C)C3O (centres undefined)
- T/C (dose: 2.5 mg/kg/injection, schedule: Q01DX009 (ip), vehicle: saline): 155 % of control
- T/C (dose: 5.0 mg/kg/injection, schedule: Q01DX009 (ip), vehicle: saline): 163 % of control

SMILES: COc1cc(C2C3=C(CCC3)Oc3cc4c(cc32)OCO4)cc(OC)c1OC (centres undefined)
- T/C [1]: 91 % of control
- T/C [2]: 86 % of control
- T/C [3]: 86 % of control

SMILES: COc1cc(C=Nc2cc(Br)cc(Br)c2)ccc1N(CCCl)CCCl
- T/C (dose: 0.44 mg/kg/injection, schedule: Q01DX009 (ip), vehicle: saline with Tween-80): 120 % of control
- T/C (dose: 0.66 mg/kg/injection, schedule: Q01DX009 (ip), vehicle: saline with Tween-80): 105 % of control
- T/C (dose: 1.5 mg/kg/injection, schedule: Q01DX009 (ip), vehicle: saline with Tween-80): 170 % of control
- T/C (dose: 2.25 mg/kg/injection, schedule: Q04DX003 (ip), vehicle: other): 111 % of control
- T/C (dose: 2.5 mg/kg/injection, schedule: Q01DX009 (ip), vehicle: saline with Tween-80): 165 % of control
- T/C (dose: 5.0 mg/kg/injection, schedule: Q01DX009 (ip), vehicle: saline with Tween-80): 170 % of control
- T/C (dose: 9.0 mg/kg/injection, schedule: Q04DX003 (ip), vehicle: other): 165 % of control
- T/C (dose: 10.0 mg/kg/injection, schedule: Q01DX009 (ip), vehicle: saline with Tween-80): 110 % of control
- T/C (dose: 18.0 mg/kg/injection, schedule: Q04DX003 (ip), vehicle: other): 223 % of control

SMILES: C[CH2][Sn]([CH2]C)([O]S(=O)(=O)CC12CCC(CC1=O)C2(C)C)[O]S(=O)(=O)CC12CCC(CC1=O)C2(C)C
- T/C (dose: 1.56 mg/kg/injection, schedule: Q01DX009 (ip), vehicle: saline): 102 % of control
- T/C (dose: 3.12 mg/kg/injection, schedule: Q01DX009 (ip), vehicle: saline): 119 % of control

SMILES: CC(=O)O[C@@H]1CCC2CCC1N2C (some centres undefined)
- T/C (dose: 50.0 mg/kg/injection, schedule: Q01DX005 (ip), vehicle: saline): 97 % of control
- T/C (dose: 100.0 mg/kg/injection, schedule: Q01DX005 (ip), vehicle: saline): 95 % of control
- T/C (dose: 200.0 mg/kg/injection, schedule: Q01DX005 (ip), vehicle: saline): 95 % of control

SMILES: CCC1(O)CN2CCc3c([nH]c4ccccc34)C1C(/C=C(\C(=O)OC)c1cc3c(cc1OC)N(C)C1C(O)(C(=O)OC)C(OC(C)=O)C4(CC)C=CCN5CCC31C54)C2 (centres undefined)
- T/C (dose: 1.0 mg/kg/injection, schedule: Q01DX001 (ip), vehicle: distilled water + Tween-80): 102 % of control
- T/C (dose: 2.0 mg/kg/injection, schedule: Q01DX001 (ip), vehicle: distilled water + Tween-80): 100 % of control
- T/C (dose: 2.0 mg/kg/injection, schedule: Q01DX009 (ip), vehicle: distilled water + alcohol): 160 % of control
- T/C (dose: 4.0 mg/kg/injection, schedule: Q01DX001 (ip), vehicle: distilled water + Tween-80): 100 % of control
- T/C (dose: 4.0 mg/kg/injection, schedule: Q01DX009 (ip), vehicle: distilled water + alcohol): 152 % of control
- T/C (dose: 8.0 mg/kg/injection, schedule: Q01DX001 (ip), vehicle: distilled water + Tween-80): 102 % of control
- T/C (dose: 16.0 mg/kg/injection, schedule: Q01DX001 (ip), vehicle: distilled water + Tween-80): 112 % of control
- T/C (dose: 32.0 mg/kg/injection, schedule: Q01DX001 (ip), vehicle: distilled water + Tween-80): 100 % of control

SMILES: CN[C@H]1CC[C@]23C[C@]24CC[C@]2(C)[C@@H]([C@H](C)N(C)C)CC[C@@]2(C)[C@@H]4CC[C@H]3C1(C)C
- T/C (dose: 3.12 mg/kg/injection, schedule: Q01DX009 (ip), vehicle: saline with Tween-80): 112 % of control
- T/C (dose: 6.25 mg/kg/injection, schedule: Q01DX009 (ip), vehicle: saline with Tween-80): 100 % of control
- T/C (dose: 12.5 mg/kg/injection, schedule: Q01DX009 (ip), vehicle: saline with Tween-80): 102 % of control
- T/C (dose: 25.0 mg/kg/injection, schedule: Q01DX009 (ip), vehicle: saline with Tween-80): 102 % of control
- T/C (dose: 50.0 mg/kg/injection, schedule: Q01DX009 (ip), vehicle: saline with Tween-80): 118 % of control

SMILES: Cc1nc2c([N+](=O)[O-])c(NCc3ccccc3)c([N+](=O)[O-])cc2[nH]1
- T/C (dose: 100.0 mg/kg/injection, schedule: Q04DX003 (ip), vehicle: saline with Tween-80): 97 % of control
- T/C (dose: 200.0 mg/kg/injection, schedule: Q04DX003 (ip), vehicle: saline with Tween-80): 95 % of control
- T/C (dose: 400.0 mg/kg/injection, schedule: Q04DX003 (ip), vehicle: saline with Tween-80): 101 % of control

SMILES: CC1=NN(c2ccc(S(=O)(=O)O)cc2)C(=O)C1N=Nc1ccc(C)c(S(=O)(=O)Nc2ccccc2)c1 (centres undefined)
- T/C [4]: 101 % of control
- T/C [5]: 99 % of control
- T/C (dose: 200.0 mg/kg/injection, schedule: Q01DX009 (ip), vehicle: Klucel (hydroxypropylcellulose) (HPC)): 101 % of control

SMILES: CC1(Br)CN([C@@H](C(=O)O)c2ccccc2)C1=O (some centres undefined)
- T/C (dose: 50.0 mg/kg/injection, schedule: Q04DX002 (ip), vehicle: saline with Tween-80): 102 % of control
- T/C (dose: 100.0 mg/kg/injection, schedule: Q04DX002 (ip), vehicle: saline with Tween-80): 96 % of control
- T/C (dose: 200.0 mg/kg/injection, schedule: Q04DX002 (ip), vehicle: saline with Tween-80): 93 % of control
- T/C (dose: 400.0 mg/kg/injection, schedule: Q04DX002 (ip), vehicle: saline with Tween-80): 102 % of control
